In brackets after ≈: the same amount, converted by molar mass.
Columns and labels:
Assay in all cases: ≥ marks a high value that may be exact or a test limit, other limits are often not marked, values filed in µg/mL are converted to µM
[1] = system: Xanthomonas campestris pv. Vesicatoria 2133-2
[2] = system: Pseudomonas syringae pv. syringae EPS 94
[3] = system: Erwinia amylovora PMV 6076
[4] = system: Salmonella enterica subsp. enterica serovar Typhimurium ATCC 14028
[5] = system: Staphylococcus aureus ATCC 6538
[6] = system: Klebsiella pneumoniae ATCC 10031
[7] = system: Escherichia coli ATCC 11219
[8] = system: Pseudomonas aeruginosa ATCC 13388
Escherichia coli K-12 = system: Escherichia coli K-12
[9] = system: Staphylococcus aureus NCTC 8325-4
Klebsiella pneumoniae = system: Klebsiella pneumoniae
[10] = system: Pseudomonas aeruginosa PAO1
Staphylococcus aureus = system: Staphylococcus aureus
Pseudomonas aeruginosa = system: Pseudomonas aeruginosa
Proteus mirabilis = system: Proteus mirabilis
Streptococcus pyogenes = system: Streptococcus pyogenes
Candida albicans = system: Candida albicans
[11] = system: Staphylococcus epidermidis
[12] = system: Staphylococcus saprophyticus
[13] = system: Escherichia coli ATCC 25922
[14] = system: Escherichia coli CCT 1371
[15] = system: Staphylococcus aureus ATCC 25923
[16] = system: Bacillus subtilis CCT 2471
[17] = system: Pseudomonas aeruginosa ATCC 15442
Aureobasidium pullulans = system: Aureobasidium pullulans
Micrococcus luteus = system: Micrococcus luteus
[18] = system: Candida albicans ATCC 10231
[19] = system: Bacillus subtilis ATCC 23857
[20] = system: Pseudomonas aeruginosa ATCC 27853
Bacillus megaterium = system: Bacillus megaterium
[21] = system: Staphylococcus aureus ATCC 9144
[22] = system: Corynebacterium glutamicum ATCC 13032
Bacillus megaterium Bm11 = system: Bacillus megaterium Bm11
Escherichia coli ML-35 = system: Escherichia coli ML-35
Aspergillus fumigatus = system: Aspergillus fumigatus

## CC(C)C[C@H](NC(=O)[C@H](Cc1cnc[nH]1)NC(=O)[C@H](CCC(=O)O)NC(=O)[C@H](Cc1c[nH]c2ccccc12)NC(=O)[C@H](CC(=O)O)NC(=O)[C@H](CCCCN)NC(=O)[C@H](CC(C)C)NC(=O)[C@H](Cc1cnc[nH]1)NC(=O)[C@H](CCC(=O)O)NC(=O)[C@H](Cc1c[nH]c2ccccc12)NC(=O)[C@H](CC(=O)O)NC(=O)[C@H](CCCCN)NC(=O)[C@H](CC(C)C)NC(=O)[C@H](Cc1cnc[nH]1)NC(=O)[C@H](CCC(=O)O)NC(=O)[C@H](Cc1c[nH]c2ccccc12)NC(=O)[C@H](CC(=O)O)NC(=O)[C@@H](N)CCCCN)C(=O)O [KDWEHLKDWEHLKDWEHL]
[1]
  MIC: ≥ 100 µM
[2]
  MIC: ≥ 100 µM
[3]
  MIC: ≥ 100 µM

## CC[C@H](C)[C@H](NC(=O)CN)C(=O)N[C@@H](CCCCN)C(=O)N[C@@H](CCCCN)C(=O)N[C@H](C(=O)N[C@@H](CC(C)C)C(=O)N[C@@H](CCCCN)C(=O)N[C@@H](Cc1ccc(O)cc1)C(=O)NCC(=O)N[C@@H](CCCCN)C(=O)N[C@@H](CCCCN)C(=O)N[C@@H](CO)C(N)=O)[C@@H](C)CC [GIKKILKYGKKS]
[4]
  MIC: 20 µM (≈ 27.2 µg/mL)
[5]
  MIC: 5 µM (≈ 6.81 µg/mL)
[6]
  MIC: ≥ 50 µM
[7]
  MIC: 20 µM (≈ 27.2 µg/mL)
[8]
  MIC: ≥ 50 µM

## CC[C@H](C)[C@H](NC(=O)CNC(=O)[C@@H](N)Cc1c[nH]c2ccccc12)C(=O)N[C@@H](CCCN=C(N)N)C(=O)N[C@@H](CC(=O)O)C(=O)N[C@H](C(=O)N[C@@H](CC(C)C)C(=O)N[C@@H](CCCCN)C(=O)N[C@@H](Cc1ccc(O)cc1)C(=O)NCC(=O)N[C@@H](CCCCN)C(=O)N1CCC[C@H]1C(=O)N[C@@H](CO)C(=O)O)[C@@H](C)CC [WGIRDILKYGKPS]
[4]
  MIC: 8 µM (≈ 12.3 µg/mL)
[5]
  MIC: 15 µM (≈ 23 µg/mL)
[6]
  MIC: 30 µM (≈ 46 µg/mL)
[7]
  MIC: 15 µM (≈ 23 µg/mL)
[8]
  MIC: 5 µM (≈ 7.66 µg/mL)

## CC[C@H](C)[C@H](N)C(=O)N[C@@H](CCCCN)C(=O)N[C@@H](CCCCN)C(=O)N[C@H](C(=O)N[C@H](C(=O)N[C@@H](CCCCN)C(=O)N[C@@H](CCCCN)C(=O)N[C@H](C(=O)N[C@H](C(=O)N[C@@H](CCCCN)C(N)=O)[C@@H](C)CC)[C@@H](C)CC)[C@@H](C)CC)[C@@H](C)CC [IKKIIKKIIK]
Escherichia coli K-12
  MIC: ≥ 500 µM
[9]
  MIC: ≥ 500 µM
Klebsiella pneumoniae
  MIC: > 500 µM
[10]
  MIC: > 500 µM

## NC(N)=NCCC[C@H](NC(=O)[C@H](CCCN=C(N)N)NC(=O)[C@H](CCCN=C(N)N)NC(=O)[C@H](CCCN=C(N)N)NC(=O)[C@H](CCCN=C(N)N)NC(=O)[C@H](CCCN=C(N)N)NC(=O)[C@H](CCCN=C(N)N)NC(=O)[C@H](CCCN=C(N)N)NC(=O)[C@H](Cc1c[nH]c2ccccc12)NC(=O)[C@@H](N)Cc1c[nH]c2ccccc12)C(=O)O [WWRRRRRRRR]
Staphylococcus aureus
  MIC: 5.49 µM (≈ 9 µg/mL)
Pseudomonas aeruginosa
  MIC: > 39 µM
Proteus mirabilis
  MIC: ≥ 39 µM
Streptococcus pyogenes
  MIC: 0.61 µM (≈ 1 µg/mL)

## CC[C@H](C)[C@H](N)C(=O)N[C@@H](CC(N)=O)C(=O)N[C@@H](CC(C)C)C(=O)N[C@@H](CC(C)C)C(=O)N[C@@H](CCCCN)C(=O)N[C@H](C(=O)N[C@@H](C)C(=O)N[C@@H](CCCCN)C(=O)NCC(=O)N[C@H](C(=O)N[C@H](C(=O)N[C@@H](CCCCN)C(=O)N[C@@H](CO)C(=O)N[C@@H](CC(C)C)C(=O)O)[C@@H](C)CC)[C@@H](C)CC)[C@@H](C)CC [INLLKIAKGIIKSL]
Candida albicans
  MIC: > 65.6 µM
[5]
  MIC: 65.6 µM (≈ 100 µg/mL)
[11]
  MIC: ≥ 32.8 µM
[12]
  MIC: 16.4 µM (≈ 25 µg/mL)
[13]
  MIC: 16.4 µM (≈ 25 µg/mL)
[14]
  MIC: ≥ 32.8 µM
[15]
  MIC: 6.56 µM (≈ 10 µg/mL)
[16]
  MIC: ≥ 65.6 µM
[17]
  MIC: ≥ 65.6 µM

## CC[C@H](C)[C@H](NC(=O)[C@H](CCCCN)NC(=O)[C@H](CCCCN)NC(=O)[C@H](Cc1ccccc1)NC(=O)[C@H](CC(C)C)NC(=O)[C@H](CCCCN)NC(=O)[C@@H](N)CCCCN)C(=O)N[C@@H](CC(C)C)C(=O)N[C@@H](CCCCN)C(=O)N[C@@H](Cc1ccc(O)cc1)C(=O)N[C@@H](CC(C)C)C(=O)O [KKLFKKILKYL]
[1]
  MIC: 14.1 µM (≈ 20.1 µg/mL)
[2]
  MIC: 8.66 µM (≈ 12.3 µg/mL)
[3]
  MIC: 8.66 µM (≈ 12.3 µg/mL)

## C[C@H](NC(=O)[C@H](CCCCN)NC(=O)[C@H](Cc1c[nH]c2ccccc12)NC(=O)CNC(=O)[C@H](Cc1c[nH]c2ccccc12)NC(=O)[C@H](Cc1c[nH]c2ccccc12)NC(=O)[C@H](CCCCN)NC(=O)[C@H](CCCCN)NC(=O)CN)C(=O)N[C@@H](CCCCN)C(N)=O [GKKWWGWKAK]
Aureobasidium pullulans
  MIC: 24.6 µM (≈ 31.3 µg/mL)
Micrococcus luteus
  MIC: 12.2 µM (≈ 15.6 µg/mL)
[18]
  MIC: 24.6 µM (≈ 31.3 µg/mL)
[19]
  MIC: 12.2 µM (≈ 15.6 µg/mL)
[13]
  MIC: 24.6 µM (≈ 31.3 µg/mL)
[20]
  MIC: 196 µM (≈ 250 µg/mL)
Bacillus megaterium
  MIC: 0.785 µM (≈ 0.999 µg/mL)
[21]
  MIC: ≥ 196 µM
[22]
  MIC: 1.57 µM (≈ 2 µg/mL)

## CC(C)[C@H](NC(=O)[C@H](CCCCN)NC(=O)[C@H](C)NC(=O)[C@@H](NC(=O)[C@@H](NC(=O)[C@H](CCCN=C(N)N)NC(=O)[C@H](CCCN=C(N)N)NC(=O)[C@H](Cc1c[nH]c2ccccc12)NC(=O)[C@H](Cc1c[nH]c2ccccc12)NC(=O)CN)[C@@H](C)O)C(C)C)C(=O)N[C@@H](C)C(=O)N[C@@H](CCCCN)C(N)=O [GWWRRTVAKVAK]
Aureobasidium pullulans
  MIC: ≥ 50 µM
[18]
  MIC: 25 µM (≈ 36.4 µg/mL)
[13]
  MIC: 12.5 µM (≈ 18.2 µg/mL)
[20]
  MIC: 12.5 µM (≈ 18.2 µg/mL)
[21]
  MIC: ≥ 100 µM
[22]
  MIC: 1.6 µM (≈ 2.33 µg/mL)

## CC[C@H](C)[C@H](NC(=O)[C@H](CCCCN)NC(=O)[C@H](CCCCN)NC(=O)[C@H](CCCN=C(N)N)NC(=O)[C@H](CC(C)C)NC(=O)[C@H](CCCN=C(N)N)NC(=O)[C@H](CCCN=C(N)N)NC(=O)[C@H](CC(C)C)NC(=O)[C@H](CC(C)C)NC(=O)CN)C(=O)NCC(=O)N[C@@H](CCC(=O)O)C(=O)N[C@H](C(=O)N[C@@H](Cc1ccccc1)C(=O)N[C@@H](CCCCN)C(=O)N[C@@H](CCCCN)C(=O)N[C@@H](Cc1ccc(O)cc1)C(=O)NCC(=O)O)[C@@H](C)CC [GLLRRLRKKIGEIFKKYG]
[4]
  MIC: 1 µM (≈ 2.18 µg/mL)
Bacillus megaterium Bm11
  MIC: 4 µM (≈ 8.7 µg/mL)
Escherichia coli ML-35
  MIC: 2 µM (≈ 4.35 µg/mL)
[15]
  MIC: 4 µM (≈ 8.7 µg/mL)

## CC(C)C[C@H](NC(=O)[C@H](Cc1ccccc1)NC(=O)[C@@H]1CCCN1C(=O)[C@H](Cc1c[nH]c2ccccc12)NC(=O)[C@H](CS)NC(=O)[C@@H](NC(=O)[C@H](Cc1c[nH]c2ccccc12)NC(=O)[C@@H]1CCCN1C(=O)[C@H](Cc1ccccc1)NC(=O)[C@H](CCCN=C(N)N)NC(=O)[C@H](CCCN=C(N)N)NC(=O)[C@@H](N)CCCN=C(N)N)C(C)C)C(=O)N[C@@H](CCCN=C(N)N)C(=O)N[C@@H](CCCN=C(N)N)C(=O)N[C@@H](CCCN=C(N)N)C(=O)O [RRRFPWVCWPFLRRR]
Candida albicans
  MIC: 469 µM (≈ 1000 µg/mL)
Aspergillus fumigatus
  MIC: ≥ 117 µM

## CC[C@H](C)[C@H](NC(=O)CN)C(=O)N[C@@H](Cc1cnc[nH]1)C(=O)N[C@@H](CCCCN)C(=O)N[C@H](C(=O)N[C@@H](CC(C)C)C(=O)N[C@@H](CCCCN)C(=O)N[C@@H](Cc1ccc(O)cc1)C(=O)NCC(=O)N[C@@H](CCCCN)C(=O)N1CCC[C@H]1C(=O)N[C@@H](CO)C(N)=O)[C@@H](C)CC [GIHKILKYGKPS]
[4]
  MIC: 10 µM (≈ 13.4 µg/mL)
[5]
  MIC: 10 µM (≈ 13.4 µg/mL)
[6]
  MIC: 5 µM (≈ 6.7 µg/mL)
[7]
  MIC: 5 µM (≈ 6.7 µg/mL)
[8]
  MIC: 20 µM (≈ 26.8 µg/mL)

Source: DBAASP
